Measured values: patent US5296498A, “Guanidine compounds” (Adir et Compagnie, priority 1990, dated 1994)
Structures can show the parent of a compound that is named as a salt.

Assays:
5 HT2 receptors = 5 HT2 receptors (Homo sapiens, UniProt P28223); test: In vitro affinity test for 5-HT2 receptors; conditions: conventional binding technique, read-out: Ki with respect to 5 HT2 receptors
Description: (§1) EXAMPLE 8: In vitro affinity test for endazoline, α1 and α2 and 5-HT receptors
(§2) The in vitro affinity tests for endazoline receptors were carried out according to a technique described by A. Parini et al. (Biochem. and Biophys. Res. Comm. 147(3), 1055, 1987), and according to conventional binding techniques for the other receptors.

5-HT1B receptors = 5-HT1B receptors (Rattus norvegicus, UniProt P28564); test: In vitro affinity test for 5-HT1B receptors; conditions: conventional binding technique, read-out: Ki with respect to 5-HT1B receptors
Description: as §1, §2

5-HT3 receptors = biological target: T1, 5-HT3 receptors (Homo sapiens, UniProt P46098); test: In vitro affinity test for 5-HT3 receptors; conditions: conventional binding technique, read-out: Ki with respect to 5-HT3 receptors
T1 sequence (P46098 24-478): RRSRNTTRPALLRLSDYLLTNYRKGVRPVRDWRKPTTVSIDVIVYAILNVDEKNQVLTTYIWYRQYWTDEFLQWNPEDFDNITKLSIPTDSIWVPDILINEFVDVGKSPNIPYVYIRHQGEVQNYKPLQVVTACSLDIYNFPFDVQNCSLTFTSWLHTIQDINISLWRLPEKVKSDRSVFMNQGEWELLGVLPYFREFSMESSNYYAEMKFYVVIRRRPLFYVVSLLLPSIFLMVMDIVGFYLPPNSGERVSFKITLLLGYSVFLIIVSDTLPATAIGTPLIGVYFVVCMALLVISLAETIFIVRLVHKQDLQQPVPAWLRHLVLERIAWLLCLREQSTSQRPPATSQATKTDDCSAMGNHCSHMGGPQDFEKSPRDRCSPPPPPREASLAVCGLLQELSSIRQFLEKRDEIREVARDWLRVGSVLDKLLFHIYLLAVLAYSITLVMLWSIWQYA
Description: as §1, §2

5-HT1A receptors = biological target: T2, 5-HT1A receptors (Homo sapiens, UniProt P08908); test: In vitro affinity test for 5-HT1A receptors; conditions: conventional binding technique, read-out: Ki with respect to 5-HT1A receptors
T2 sequence (P08908 1-422): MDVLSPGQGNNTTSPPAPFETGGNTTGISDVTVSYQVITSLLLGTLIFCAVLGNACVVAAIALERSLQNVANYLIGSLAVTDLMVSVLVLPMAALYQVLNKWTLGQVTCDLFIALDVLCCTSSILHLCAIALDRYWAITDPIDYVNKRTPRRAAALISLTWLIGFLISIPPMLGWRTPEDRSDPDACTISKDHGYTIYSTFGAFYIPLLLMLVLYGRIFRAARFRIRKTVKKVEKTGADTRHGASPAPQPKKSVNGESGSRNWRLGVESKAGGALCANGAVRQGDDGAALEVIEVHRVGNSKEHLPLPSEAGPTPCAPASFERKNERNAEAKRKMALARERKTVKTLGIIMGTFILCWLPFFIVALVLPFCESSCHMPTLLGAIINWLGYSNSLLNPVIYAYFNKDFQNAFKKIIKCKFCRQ
Description: as §1, §2

5-HT1B receptors, sequence (P28564 whole entry): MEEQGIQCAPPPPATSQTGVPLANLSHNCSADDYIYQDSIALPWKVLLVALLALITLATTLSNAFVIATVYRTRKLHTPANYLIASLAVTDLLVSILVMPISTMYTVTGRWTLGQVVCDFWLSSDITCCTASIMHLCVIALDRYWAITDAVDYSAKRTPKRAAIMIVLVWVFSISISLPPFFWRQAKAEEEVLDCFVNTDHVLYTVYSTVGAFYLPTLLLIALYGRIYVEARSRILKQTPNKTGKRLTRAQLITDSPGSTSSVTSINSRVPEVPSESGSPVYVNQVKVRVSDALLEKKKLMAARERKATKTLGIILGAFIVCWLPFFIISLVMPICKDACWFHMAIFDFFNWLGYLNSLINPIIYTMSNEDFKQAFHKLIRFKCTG
5 HT2 receptors, sequence (P28223 whole entry): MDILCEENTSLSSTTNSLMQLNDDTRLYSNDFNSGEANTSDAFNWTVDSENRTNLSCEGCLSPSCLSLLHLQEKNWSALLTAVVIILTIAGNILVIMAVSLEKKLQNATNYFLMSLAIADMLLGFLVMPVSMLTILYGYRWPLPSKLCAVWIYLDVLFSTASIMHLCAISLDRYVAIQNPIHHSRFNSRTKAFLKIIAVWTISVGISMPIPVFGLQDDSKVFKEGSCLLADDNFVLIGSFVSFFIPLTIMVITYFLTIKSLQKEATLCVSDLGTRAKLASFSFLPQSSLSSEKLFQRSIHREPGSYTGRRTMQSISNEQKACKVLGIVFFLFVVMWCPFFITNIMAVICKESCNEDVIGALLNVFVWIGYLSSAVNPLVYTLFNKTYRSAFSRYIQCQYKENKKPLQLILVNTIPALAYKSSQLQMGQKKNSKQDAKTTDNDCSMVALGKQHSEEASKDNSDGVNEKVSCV

Structure (SMILES): N=C(N)NN=CC(C1CC1)C1CC1 [Example 2, (2,2-Dicyclopropylethylidene)aminoguanidine hydrochloride]
- Ki (5 HT2 receptors): ~20 µM
- Ki (5-HT1B receptors): ~100 µM
- Ki (5-HT3 receptors): ~2 µM
- Ki (5-HT1A receptors): ~10 µM
